Literature values as cited in patent publication US6774131B1, “Remedies for endothelin-induced diseases” (Yamanouchi Pharmaceutical Co., Ltd., priority 2000, dated 2004).

How the values were obtained:
prostate cancer patients = details: reported, Proceeding of ASCO,19,1314,2000; cited from earlier work
[1] = 20 mg; 6th International Conference on Endothelin, Abstract No. 219; cited from earlier work

## CCCCN(CCCC)C(=O)CN1C[C@H](c2ccc3c(c2)OCO3)[C@@H](C(=O)O)[C@@H]1c1ccc(OC)cc1 [ABT-627, 1-(N,N-dibutylcarbamoylmethyl)-2(R)-(4-methoxyphenyl)-4(S)-(3,4-methylenedioxyphenyl)pyrrolidine-3(R)-carboxylic acid]
Prostate cancer patients
  minimum effective dose: 10 mg
[1]
  AUC: 802 ng·h/mL
  Cmax: 93.5 ng/mL
  T max: 0.6 h
  T ½: 28.4 h
